Consider six compounds from paper PMC7221519, “Synthesis and Evaluation of [^18F]FEtLos and [^18F]AMBF3Los as Novel ^18F-Labelled Losartan Derivatives for Molecular Imaging of Angiotensin II Type 1 Receptors” (Molecules, 2020).

One data set deals with T1, human AT1R (Homo sapiens, UniProt P30556).
T1 construct: purchased Perkin Elmer (Waltham, MA, USA); host or cells: CHO-K1 cells (recombinant membrane preparation)
T1 sequence (P30556 1-359): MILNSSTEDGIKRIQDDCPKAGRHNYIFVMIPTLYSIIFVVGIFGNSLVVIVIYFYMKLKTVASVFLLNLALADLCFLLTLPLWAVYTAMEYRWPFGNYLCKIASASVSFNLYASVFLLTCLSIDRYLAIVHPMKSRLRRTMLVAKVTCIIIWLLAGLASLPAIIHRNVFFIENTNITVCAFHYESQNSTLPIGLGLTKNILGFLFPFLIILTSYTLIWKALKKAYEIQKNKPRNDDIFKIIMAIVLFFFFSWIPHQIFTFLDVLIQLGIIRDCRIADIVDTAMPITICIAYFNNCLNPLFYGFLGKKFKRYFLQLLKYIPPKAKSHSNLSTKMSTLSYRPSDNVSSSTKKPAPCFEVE
The experiment in a line: Competition binding assay in membranes containing human AT1R, [125I]-(Sar1,Ile8)-Angiotensin II as radioligand. The conditions noted are these: human AT1R membranes from CHO-K1 cells, displacement of [125I]-(Sar1,Ile8)-Angiotensin II, n = 3. In general terms: Loss of bound radioactivity is the signal in a displacement assay; it reports binding, not function.

Details of data set [1]: method as in earlier work. The conditions noted are these: cited from earlier work.
Data set [2] is described as follows: Log D7.4 measurement (octanol/PBS, gamma counting). In kind it is physicochemical. Particulars: pH 7.4, n = 3. How it is done:
The log D7.4 values were determined according to the literature. Aliquots (2 μL) of [^18F]FEtLos and [^18F]AMBF3Los were added to polypropylene tubes containing 3 mL of octanol and 3 mL of PBS (phosphate-buffered saline). The samples were vortexed for 20 s (2 times) and centrifuged at 600× g for 15 min. Aliquots (0.1 mL) of each layer were counted in a gamma counter to determine the log D7.4 as log (counts in octanol layer/counts in PBS layer).

The next data set has as its system CHO-AT1R cells. The experiment in a line: Cell binding (uptake) assay in CHO-AT1R and CHO cells. Type of data set: cell-based, Chinese hamster. Particulars: 60 min at 4 °C; for AT1R-specific binding to CHO-AT1R cells (blocking with losartan potassium): losartan potassium 100 µM/well. As for the experimental part: The cell binding assays were performed based on previous reports with modifications. […] To saturate the AT1R, the cells of the blocking group were treated with losartan 30 min before adding the radiolabelled compound. At the end of the incubation period, the supernatant was aspirated and cells were washed six times with ice-cold PBS, and further removed with cell scraper and transferred to a gamma counter tube. The cellular activity was counted in a Cobra II gamma counter (Packard). […]
(§1) Supplemental material and methods
1. Binding assays in cells with [18F]FEtLos
CHO-AT1R and CHO cells ([…]) were plated in a 6-well plate overnight and then incubated for one hour at 4 °C with 10 µCi (370 kBq) of [18F]FEtLos per well, in presence or absence […]
(§2) At the end of the incubation period, the supernatant was aspirated and cells were washed six times with ice-cold PBS, and further removed with cell scraper and transferred to a gamma counter tube. The activity in the cells was counted in a Cobra II gamma counter (Packard). […]

Data set [3] in a line: Biodistribution at 60 min p.i. in healthy NSG mice. Type of data set: in vivo, NOD.Cg-Prkdc^scidIl2rg^tm1Wjl/SzJ mice. The conditions noted are these: n = 3. How it is done: Experiments involving animals were approved by the Animal Ethics Committee of the University of British Columbia (Protocol number: A16-0128). Immunodeficient NOD.Cg-Prkdc^scidII2rg^tm1Wjl/SzJ (NSG) mice were obtained from an in-house breeding colony at the Animal Resource Centre at BC Cancer Research Facility. Mice were always divided into baseline and AT1R blocked groups to assess the AT1R binding specificity of [^18F]AMBF3Los with the co-injection of the AT1R blocker losartan (18 mg/kg, dissolved in PBS).
(§3) The in vivo AT1R binding specificity of [^18F]AMBF3Los was evaluated in healthy mice by a dynamic PET scan. Healthy NSG mice were injected in the tail vein with 6 ± 1 MBq (170 ± 38 μCi) of [^18F]AMBF3Los and a sixty-minute dynamic PET scans was carried out on a μPET/CT scanner (Inveon, Siemens) following procedures reported previously. Alternatively, [^18F]AMBF3Los was concomitantly injected with the AT1R blocker losartan (18 mg/kg) before the dynamic acquisition. Before and during the acquisition, mice were sedated with a continuous flow of isoflurane anesthesia (2% isoflurane in oxygen). The µPET/CT images were analyzed with PMOD v3.3 software (PMOD Technologies, Zürich, Switzerland). An elliptical volume-of-interest that enclosed the entire kidney was positioned manually on the PET images for the determination of the kidney volume. Then, 3-dimensional isocontours were drawn automatically. For each VOI, the percentage of the injected dose in the region of interest, divided by the injected dose per animal weight (% ID/g) could be calculated directly using the output parameters from the μPET.
After the sixty-minute dynamic PET scans, anesthetized mice were euthanized by carbon dioxide asphyxiation and blood, fat, testis, intestines, stomach, spleen, liver, pancreas, adrenal glands, kidneys, lungs, heart, muscle, bone and brain were harvested, rinsed in PBS, weighted and counted in a Perkin Elmer (Waltham, MA, USA) Wizard2 2480 automatic gamma counter to quantify the percent of injected dose per gram of tissue (% ID/g).

Data set [4] has as its system renal AT1R. The experiment in a line: Dynamic µPET scan of healthy NSG mice. The conditions noted are these: early time points (10, 15 and 20 min), losartan 18 mg/kg. Type of data set: in vivo, NOD.Cg-Prkdc^scidIl2rg^tm1Wjl/SzJ mice. As for the experimental part: as §3
The test system of data set [5] is renal AT1R. The data set can be described thus: Autoradiography of mouse kidneys after 60-min dynamic µPET scan. In kind it is in vivo, NOD.Cg-Prkdc^scidIl2rg^tm1Wjl/SzJ mice. Particulars: autoradiography after 60-min dynamic µPET scan, co-injection of losartan potassium. An excerpt:
Kidneys harvested from healthy NSG mice (after the biodistribution studies), were rinsed in PBS and frozen in isopentane/dry-ice bath. Ten μm-thick slides of the kidneys were obtained using a cryostat (Leica, Wetzlar, Germany), and thaw-mounted onto Superfrost Plus microscope slides (Fischerbrand from Thermo Fisher Scientific, Toronto, ON, Canada), following general procedures of the lab. Afterwards, kidney slides were exposed to a phosphor screen overnight and imaged on a Typhoon FLA 9500 scanner (GE Healthcare, Chicago, IL, USA).

Data set [6] deals with renal AT1R. The experiment in a line: Ex vivo µPET/CT imaging of mouse kidneys 10 min p.i. In kind it is in vivo, Balb/c Nude mice. The conditions noted are these: losartan 70 mg/kg. How it is done: The renal AT1R binding specificity of [^18F]FEtLos was also evaluated by an ex vivo µPET/CT imaging of Balb/c Nude mice kidneys 10 min post injection (p.i.) of the tracer. […] These positive results of the ex vivo renal AT1R binding of [^18F]FEtLos might be possible due to the high AT1R density in the kidneys, that allows visualizing specific uptake in spite of the low AT1R binding affinity of [^18F]FEtLos.
Figure S12. Calibration curve for determining the molar activity of [18F]FEtLos. The curve represent the correlation between the area under the curve (AUC), recorded from the analytical HPLC profile at 254 nm, and the amount (nmol) of the product injected onto analytical HPLC.
as §1
1. Binding assays in cells with [18F]FEtLos […]
as §2
The AT1R binding specificity of [18F]FEtLos was evaluated by ex vivo µPET/CT imaging of healthy Balb/c Nude mice kidneys after ten minutes of intravenous injection of [18F]FEtLos with […]
(AT1R blocked). […] The ex vivo µPET/CT imaging was recorded using a FOV (field of view) of 60 mm and 15 min for PET scan, and 35 kV and 400 µA for CT scan.

The target in another data set is rat kidney AT1R. Also on record: method as in PMID 27199365. The conditions noted are these: read-out: dissociation constant, KD; cited from earlier work.
Details of data set [7]: method as in PMID 27199365. Particulars: in vivo, 60 min; cited from earlier work.
Where [8] appears, read: AT1R Blocking (co-injection of losartan 18 mg/kg).

SMILES strings stand for the structures. Several values for one entry are separate records, joined by “and”; a condition that tells them apart may be missing. Equal entries are not always repeated. Where two headings read alike, the source gives them in different places.

Procedure for human AT1R: The assays were performed using membranes expressing the human angiotensin II type 1 receptor from CHO-K1 cells, purchased from Perkin Elmer (Waltham, MA, USA). […] The hot ligand [^125I]-(Sar1,Ile8)-Angiotensin II (81.4 TBq/mmol) was also purchased from Perkin Elmer (USA). The Multiscreen MSFCN6B50 96-well plates were used for this assay. The procedure was based on the recommended assay conditions from Perkin Elmer (Waltham, MA, USA) and procedures previously described for other AT1R ligands [22, 23]. Briefly, the 96-well plate was preincubated for 1–2 h at 4 °C with 200 μL of 0.5% BSA (Bovine Serum Albumin) followed by washing (3 times) with an assay buffer. Next, 150 µL of the membranes, diluted (1:150) in the buffer assay (50 mM Tris-HCl pH 7.4, 5 mM MgCl2) to a final concentration of 0.6 μg/well, were added to the wells followed by the addition of cold (25 µL) and hot ligand (25 µL). The plate was incubated for 60 min at 27 °C under stirring and at the end of the experiment all wells were washed (9 times) with ice-cold wash buffer (50 mM Tris-HCl pH 7.4) using vacuum. Afterwards, membranes were punched out and counted in a Perkin Elmer (Waltham, MA, USA) Wizard2 2480 automatic gamma counter. The Ki values were calculated by a non-linear curve fitting using GraphPad Prism 7.01 Software (San Diego, CA, USA). The experiment was done in triplicate.

For the compound `CCCCc1nc(Cl)c(Cn2cc(C[N+](C)(C)C[B-](F)(F)F)nn2)n1Cc1ccc(-c2ccccc2-c2nnn[nH]2)cc1` [AMBF3Los, 2-butyl-4-chloro-5-[((1H-1,2,3-triazol-4-yl)-(N,N-dimethyl-ammoniomethyl-trifluoroborate)methyl)methyl]-1-[(2′-(1H-tetrazol-5-yl)biphenyl-4-yl)methyl]-1H-imidazole], the Ki (as a rule, a dissociation constant, usually derived from enzyme kinetics or from competition with a known ligand) at human AT1R was 7.9 nM.

In turn, `CCCCc1nc(Cl)c(COCCF)n1Cc1ccc(-c2ccccc2-c2nnn[nH]2)cc1` [FEtLos, 2-butyl-4-chloro-5-(2-fluoroethoxy)methyl-1-[(2′-(1H-tetrazol-5-yl)biphenyl-4-yl)methyl]-1H-imidazole] yielded a Ki at human AT1R of 2200 ± 200 nM.

For the compound `CCCCc1nc(Cl)c(CO)n1Cc1ccc(-c2ccccc2-c2nn[nH]n2)cc1` [Losartan potassium, 2-butyl-4-chloro-5-hydroxymethyl-1-[(2′-(1H-tetrazol-5-yl)biphenyl-4-yl)methyl]-1H-imidazole], the “log D7.4” value in data set [1] is on record as 1.7.

As for `CCCCc1nc(Cl)c(Cn2cc(C[N+](C)(C)C[B-](F)(F)[18F])nn2)n1Cc1ccc(-c2ccccc2-c2nnn[nH]2)cc1` [[^18F]AMBF3Los, [^18F]ammoniomethyltrifluoroborate-losartan], in data set [2], the “log D7.4” value is −0.43 ± 0.02 and −0.4. The “in vitro cellular uptake in CHO-AT1R cells compared to CHO cells” value in the data set with CHO-AT1R cells (10 µCi per well) is “higher uptake”. Besides, the “AT1R-specific binding to CHO-AT1R cells (blocking with losartan potassium)” value with CHO-AT1R cells is reported as “receptor-specific”. Also, in [3] (setting [8]), the “Uptake, Adrenal glands” value worked out at 0.11 ± 0.06 % ID/g; the “Uptake, Blood” value was 0.08 ± 0.08 % ID/g; the “Uptake, Bone” value is listed as 0.11 ± 0.03 % ID/g; the “Uptake, Brain” value was 0.005 ± 0.004 % ID/g. Further, in [3] (setting [8]), the “Uptake, Fat” value stood at 0.008 ± 0.002 % ID/g; the “Uptake, Heart” value came out at 0.04 ± 0.03 % ID/g; the “Uptake, Intestines” value came to 62 ± 3 % ID/g; the “Uptake, Kidneys” value is on record as 1.9 ± 1.3 % ID/g. For the same compound, in data set [3] (setting [8]), the “Uptake, Liver” value worked out at 0.6 ± 0.3 % ID/g; the “Uptake, Lungs” value is reported as 0.08 ± 0.04 % ID/g; the “Uptake, Muscle” value was determined as 0.05 ± 0.04 % ID/g; the “Uptake, Pancreas” value worked out at 0.07 ± 0.06 % ID/g. For the same compound, in data set [3] (setting [8]), the “Uptake, Spleen” value came to 0.08 ± 0.03 % ID/g; the “Uptake, Stomach” value was determined as 2 ± 2 % ID/g; the “Uptake, Testis” value was determined as 0.029 ± 0.008 % ID/g. In [3] (Baseline), the “Uptake, Adrenal glands” value was 0.1 ± 0.1 % ID/g; the “Uptake, Blood” value is 0.05 ± 0.03 % ID/g; the “Uptake, Bone” value came to 0.11 ± 0.06 % ID/g; the “Uptake, Brain” value was found to be 0.006 ± 0.005 % ID/g. In addition, in [3] (Baseline), the “Uptake, Fat” value is 0.011 ± 0.004 % ID/g; the “Uptake, Heart” value is given as 0.03 ± 0.01 % ID/g; the “Uptake, Intestines” value is 63 ± 9 % ID/g; the “Uptake, Kidneys” value is on record as 3.5 ± 1.2 % ID/g. In [3] (Baseline), the “Uptake, Liver” value is reported as 0.5 ± 0.5 % ID/g; the “Uptake, Lungs” value came out at 0.06 ± 0.03 % ID/g; the “Uptake, Muscle” value came out at 0.02 ± 0.01 % ID/g; the “Uptake, Pancreas” value was determined as 0.05 ± 0.03 % ID/g. In data set [3] (Baseline), the “Uptake, Spleen” value stood at 0.2 ± 0.1 % ID/g; the “Uptake, Stomach” value came out at 0.06 ± 0.05 % ID/g; the “Uptake, Testis” value came to 0.03 ± 0.01 % ID/g. Further, the “renal cortex uptake in dynamic µPET with co-injected losartan potassium versus baseline” value with renal AT1R [4] is on record as “reduced”. The “renal cortex activity, times smaller in mouse blocked with losartan potassium versus unblocked” value in the data set on renal AT1R [5] is “approximately 5 times”.

As to `CCCCc1nc(Cl)c(COCC[18F])n1Cc1ccc(-c2ccccc2-c2nnn[nH]2)cc1` [[^18F]FEtLos, [^18F]fluoroethyl-losartan], the logD (usually the decadic logarithm of the distribution of all forms, ionised or not, between an organic phase and buffer at a given pH) in data set [2] (pH 7.4, octanol/PBS) is 0.21 ± 0.09. Also, the results for the “AT1R-specific binding to CHO-AT1R cells (blocking with losartan potassium)” value with CHO-AT1R cells and with CHO-AT1R cells (listed as [18F]FEtLos) were “did not show any specific AT1R binding” and “non-significant blocking effect”, respectively. The “kidney uptake in ex vivo µPET/CT, baseline versus co-injected losartan potassium” value with renal AT1R [6] was “high uptake in the kidneys (baseline), which was blocked”.

In the case of `CCCCc1nc(Cl)c(Cn2cc(CCCOc3cccnc3[18F])nn2)n1Cc1ccc(-c2ccccc2-c2nnn[nH]2)cc1` [[^18F]FPyKYNE-losartan], at rat kidney AT1R, the Kd (in general, the free concentration of one partner at which half of the binding sites on the other are occupied at equilibrium, for simple one-to-one binding) is 49.4 nM. For the same compound, in [7], the liver uptake was 66.7 % ID/g.
